From ChEMBL document CHEMBL1159093, “Discovery and optimization of RO-85, a novel drug-like, potent, and selective P2X3 receptor antagonist” (Bioorg Med Chem Lett, 2010)

Legend:
P2X purinoceptor 3 = target: T1, P2X purinoceptor 3 (Rattus norvegicus, UniProt P49654); experiment: Antagonist activity at rat P2X3 receptor expressed in CHO cells; type: functional, cell-based
T1 sequence (P49654 whole entry): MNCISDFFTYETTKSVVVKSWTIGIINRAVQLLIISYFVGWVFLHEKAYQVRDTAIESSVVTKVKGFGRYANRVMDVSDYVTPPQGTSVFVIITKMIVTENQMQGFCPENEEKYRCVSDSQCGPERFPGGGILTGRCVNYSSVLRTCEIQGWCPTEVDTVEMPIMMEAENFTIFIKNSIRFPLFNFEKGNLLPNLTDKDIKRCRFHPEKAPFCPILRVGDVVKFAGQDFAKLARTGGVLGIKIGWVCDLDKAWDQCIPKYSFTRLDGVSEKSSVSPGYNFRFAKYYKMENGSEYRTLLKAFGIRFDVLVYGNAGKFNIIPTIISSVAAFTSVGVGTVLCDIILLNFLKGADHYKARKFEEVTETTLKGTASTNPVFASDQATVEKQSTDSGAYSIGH

[1] = target: T2, P2X2/P2X3 heterotrimeric receptor (Homo sapiens, UniProt P56373+Q9UBL9); experiment: Antagonist activity at human P2X2/P2X3 receptor expressed in human 1321N1C cells; type: functional, cell-based
T2 sequence (Q9UBL9 whole entry): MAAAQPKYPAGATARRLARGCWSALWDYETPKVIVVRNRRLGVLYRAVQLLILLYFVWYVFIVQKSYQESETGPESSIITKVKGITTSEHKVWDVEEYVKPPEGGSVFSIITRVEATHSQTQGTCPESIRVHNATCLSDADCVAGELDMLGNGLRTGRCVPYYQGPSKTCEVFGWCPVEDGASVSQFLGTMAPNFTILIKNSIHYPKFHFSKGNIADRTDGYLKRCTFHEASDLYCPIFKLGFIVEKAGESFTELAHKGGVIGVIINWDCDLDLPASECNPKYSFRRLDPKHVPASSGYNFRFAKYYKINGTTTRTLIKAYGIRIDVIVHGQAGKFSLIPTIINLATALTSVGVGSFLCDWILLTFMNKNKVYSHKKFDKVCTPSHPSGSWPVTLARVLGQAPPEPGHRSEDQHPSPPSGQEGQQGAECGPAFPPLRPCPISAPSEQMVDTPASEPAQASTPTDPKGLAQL
T2 sequence (P56373 whole entry): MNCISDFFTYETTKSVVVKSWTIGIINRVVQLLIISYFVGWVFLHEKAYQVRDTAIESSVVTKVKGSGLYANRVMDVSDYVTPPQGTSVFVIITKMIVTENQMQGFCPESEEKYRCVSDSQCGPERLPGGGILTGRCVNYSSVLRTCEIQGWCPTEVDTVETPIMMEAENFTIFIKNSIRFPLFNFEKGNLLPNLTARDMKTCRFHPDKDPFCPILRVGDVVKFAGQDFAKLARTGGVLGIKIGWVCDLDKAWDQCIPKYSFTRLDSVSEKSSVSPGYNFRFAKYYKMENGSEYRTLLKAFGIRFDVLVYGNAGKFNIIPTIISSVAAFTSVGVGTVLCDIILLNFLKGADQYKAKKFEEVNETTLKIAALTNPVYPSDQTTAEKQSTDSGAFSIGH

P2X purinoceptor 6 = P2X purinoceptor 6 (Homo sapiens, UniProt O15547); experiment: Antagonist activity at P2X6 receptor; type: functional
Chain of P2X purinoceptor 6 (O15547 whole entry): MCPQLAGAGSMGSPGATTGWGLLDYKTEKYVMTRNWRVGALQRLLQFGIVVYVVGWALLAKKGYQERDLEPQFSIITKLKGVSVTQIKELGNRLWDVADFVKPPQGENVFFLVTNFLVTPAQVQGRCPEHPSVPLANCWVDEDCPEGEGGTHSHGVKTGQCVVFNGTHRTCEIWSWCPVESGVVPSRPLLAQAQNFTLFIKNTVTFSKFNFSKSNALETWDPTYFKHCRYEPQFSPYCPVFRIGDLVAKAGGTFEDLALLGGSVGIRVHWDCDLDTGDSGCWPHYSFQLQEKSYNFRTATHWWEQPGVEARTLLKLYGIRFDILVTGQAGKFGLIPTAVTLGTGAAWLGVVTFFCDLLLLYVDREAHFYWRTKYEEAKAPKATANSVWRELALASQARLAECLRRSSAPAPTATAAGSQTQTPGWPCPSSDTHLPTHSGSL

P2X purinoceptor 4 = P2X purinoceptor 4 (Homo sapiens, UniProt Q99571); experiment: Antagonist activity at P2X4 receptor; type: functional
Chain of P2X purinoceptor 4 (Q99571 whole entry): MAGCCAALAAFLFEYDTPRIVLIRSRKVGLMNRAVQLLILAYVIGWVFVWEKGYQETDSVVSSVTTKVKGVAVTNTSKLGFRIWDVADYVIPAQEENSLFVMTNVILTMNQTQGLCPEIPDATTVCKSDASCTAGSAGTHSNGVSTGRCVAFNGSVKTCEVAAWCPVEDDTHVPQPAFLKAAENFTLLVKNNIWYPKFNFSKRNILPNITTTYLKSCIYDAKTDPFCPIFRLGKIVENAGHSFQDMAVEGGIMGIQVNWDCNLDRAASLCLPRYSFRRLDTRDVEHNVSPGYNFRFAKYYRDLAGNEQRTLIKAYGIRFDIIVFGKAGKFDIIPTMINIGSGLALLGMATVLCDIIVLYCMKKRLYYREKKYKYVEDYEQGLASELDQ

[2] = Protein binding in rat plasma; type: ADME, cell-free; details: read-out: PPB (converted)
P2X purinoceptor 2 = P2X purinoceptor 2 (Homo sapiens, UniProt Q9UBL9); experiment: Antagonist activity at P2X2 receptor; type: functional
Cytochrome P450 3A4 = Cytochrome P450 3A4 (Homo sapiens, UniProt P08684); experiment: Inhibition of CYP3A4; type: ADME
Chain of Cytochrome P450 3A4 (P08684 whole entry): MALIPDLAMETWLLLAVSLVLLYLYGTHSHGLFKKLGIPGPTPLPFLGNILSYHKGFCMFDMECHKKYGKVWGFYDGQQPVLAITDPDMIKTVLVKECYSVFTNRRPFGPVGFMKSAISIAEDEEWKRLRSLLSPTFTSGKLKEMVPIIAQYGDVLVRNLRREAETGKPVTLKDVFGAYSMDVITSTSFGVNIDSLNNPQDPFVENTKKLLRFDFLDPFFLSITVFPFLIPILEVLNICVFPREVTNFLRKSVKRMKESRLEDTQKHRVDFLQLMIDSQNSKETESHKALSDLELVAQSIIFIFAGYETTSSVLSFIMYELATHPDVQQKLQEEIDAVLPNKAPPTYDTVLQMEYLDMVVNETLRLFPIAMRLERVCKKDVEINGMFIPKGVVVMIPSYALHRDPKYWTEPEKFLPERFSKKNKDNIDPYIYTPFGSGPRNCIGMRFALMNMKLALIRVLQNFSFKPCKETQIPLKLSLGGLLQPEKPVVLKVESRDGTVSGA

P2X purinoceptor 5 = P2X purinoceptor 5 (Homo sapiens, UniProt Q93086); experiment: Antagonist activity at P2X5 receptor; type: functional
Chain of P2X purinoceptor 5 (Q93086 whole entry): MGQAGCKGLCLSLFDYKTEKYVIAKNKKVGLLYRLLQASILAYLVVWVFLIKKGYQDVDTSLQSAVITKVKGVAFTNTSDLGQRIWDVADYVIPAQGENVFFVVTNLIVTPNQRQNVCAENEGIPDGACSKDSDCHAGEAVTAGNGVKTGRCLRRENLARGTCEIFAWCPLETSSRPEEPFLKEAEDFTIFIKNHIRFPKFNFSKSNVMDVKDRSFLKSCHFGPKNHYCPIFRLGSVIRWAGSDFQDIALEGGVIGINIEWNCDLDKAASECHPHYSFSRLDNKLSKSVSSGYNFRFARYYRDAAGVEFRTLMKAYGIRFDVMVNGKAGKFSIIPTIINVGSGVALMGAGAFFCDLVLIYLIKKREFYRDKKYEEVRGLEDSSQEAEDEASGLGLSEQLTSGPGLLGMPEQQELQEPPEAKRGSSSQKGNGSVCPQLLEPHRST

P2X purinoceptor 1 = P2X purinoceptor 1 (Homo sapiens, UniProt P51575); experiment: Antagonist activity at P2X1 receptor; type: functional
Chain of P2X purinoceptor 1 (P51575 whole entry): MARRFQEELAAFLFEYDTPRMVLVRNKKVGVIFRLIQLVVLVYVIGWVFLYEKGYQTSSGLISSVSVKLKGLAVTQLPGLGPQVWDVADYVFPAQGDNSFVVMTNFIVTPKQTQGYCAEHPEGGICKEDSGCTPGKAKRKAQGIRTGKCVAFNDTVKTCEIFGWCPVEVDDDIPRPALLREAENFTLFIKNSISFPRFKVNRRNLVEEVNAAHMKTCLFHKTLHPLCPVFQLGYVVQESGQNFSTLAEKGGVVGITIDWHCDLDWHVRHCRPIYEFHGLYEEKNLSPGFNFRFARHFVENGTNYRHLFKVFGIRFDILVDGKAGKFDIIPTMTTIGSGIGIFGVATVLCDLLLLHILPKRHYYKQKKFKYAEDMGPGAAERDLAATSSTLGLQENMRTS

P2X purinoceptor 7 = P2X purinoceptor 7 (Homo sapiens, UniProt Q99572); experiment: Antagonist activity at P2X7 receptor; type: functional
Chain of P2X purinoceptor 7 (Q99572 whole entry): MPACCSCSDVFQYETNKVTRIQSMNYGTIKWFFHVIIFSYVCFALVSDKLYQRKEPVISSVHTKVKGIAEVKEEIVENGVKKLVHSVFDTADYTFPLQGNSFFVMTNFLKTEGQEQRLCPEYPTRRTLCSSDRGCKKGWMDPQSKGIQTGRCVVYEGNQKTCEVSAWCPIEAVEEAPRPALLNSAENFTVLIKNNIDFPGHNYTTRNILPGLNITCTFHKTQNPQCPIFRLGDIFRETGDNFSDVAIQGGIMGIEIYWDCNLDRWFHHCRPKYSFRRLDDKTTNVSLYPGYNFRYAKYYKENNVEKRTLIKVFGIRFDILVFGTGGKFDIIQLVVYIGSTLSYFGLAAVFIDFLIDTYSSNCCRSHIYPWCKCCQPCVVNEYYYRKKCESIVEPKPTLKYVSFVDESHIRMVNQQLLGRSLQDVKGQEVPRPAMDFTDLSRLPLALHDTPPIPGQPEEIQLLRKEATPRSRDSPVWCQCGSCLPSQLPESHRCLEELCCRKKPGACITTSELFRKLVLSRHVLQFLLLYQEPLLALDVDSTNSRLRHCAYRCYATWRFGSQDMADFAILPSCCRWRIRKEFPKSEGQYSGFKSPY

Cytochrome P450 2D6 = Cytochrome P450 2D6 (Homo sapiens, UniProt P10635); experiment: Inhibition of CYP2D6; type: ADME
Chain of Cytochrome P450 2D6 (P10635 whole entry): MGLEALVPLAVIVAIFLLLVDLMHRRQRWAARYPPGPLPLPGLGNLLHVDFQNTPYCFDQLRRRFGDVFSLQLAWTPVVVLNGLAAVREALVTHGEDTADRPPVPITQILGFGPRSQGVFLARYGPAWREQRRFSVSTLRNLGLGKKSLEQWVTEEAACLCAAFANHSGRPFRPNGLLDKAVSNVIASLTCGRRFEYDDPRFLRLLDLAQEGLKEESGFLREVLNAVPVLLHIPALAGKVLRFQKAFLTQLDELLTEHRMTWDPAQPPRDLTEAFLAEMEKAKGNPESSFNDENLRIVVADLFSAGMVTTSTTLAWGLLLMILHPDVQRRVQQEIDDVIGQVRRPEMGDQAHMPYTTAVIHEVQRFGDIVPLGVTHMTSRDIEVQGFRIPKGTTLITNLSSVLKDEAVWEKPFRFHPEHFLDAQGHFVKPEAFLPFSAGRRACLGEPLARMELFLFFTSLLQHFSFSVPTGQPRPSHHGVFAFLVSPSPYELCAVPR

Compound	IC50 (P2X purinoceptor 3) [µM]	IC50 [1] [µM]	further results
CC(CN1CCN(c2ncccn2)CC1)NC(=O)c1cc2c(-c3ccccc3F)nn(C)c2s1 (stereo unspecified)	0.0631	–	–
CC(CN1CCN(c2ncccn2)CC1)NC(=O)c1cc2c(-c3ccccc3)nn(-c3ccccc3)c2s1 (stereo unspecified)	> 10	–	–
CCCc1nc(-c2ccc(F)cc2)oc1C(=O)NC(CC)CN1CCN(c2ncccn2)CC1 (stereo unspecified)	> 10	–	–
CCCc1nc(-c2ccc(F)cc2)oc1CNC(C)CN1CCN(c2ncccn2)CC1 (stereo unspecified)	> 10	–	–
CCCc1nc(-c2ccc(F)cc2)oc1C(=O)N[C@H](C)CN1CCN(C(N)=O)CC1	1	> 10	–
CCCc1nc(-c2ccc(F)cc2)oc1C(=O)N[C@H](C)CN1CCN(c2ccncn2)CC1	1.26	> 10	–
Cc1c(C(=O)NC(C)CN2CCN(c3ncccn3)CC2)cc(-c2ccccc2)n1-c1ccccc1 (stereo unspecified)	2	> 10	–
CC(CN1CCN(c2ncccn2)CC1)NC(=O)c1oc(-c2ccccc2)cc1-c1ccccc1 (stereo unspecified)	0.631	> 10	–
CC(=O)N1CCN(CC(C)NC(=O)c2cc3c(-c4ccccc4F)nn(C)c3s2)CC1 (stereo unspecified)	0.0398	–	–
CCCc1nc(-c2ccccc2)oc1C(=O)NC(C)CN1CCN(c2ncccn2)CC1 (stereo unspecified)	0.251	> 10	IC50 (P2X purinoceptor 6): > 10 µM; IC50 (P2X purinoceptor 4): > 10 µM; fraction unbound [2]: < 0.01; IC50 (P2X purinoceptor 2): > 10 µM; IC50 (Cytochrome P450 3A4): < 10 µM; IC50 (P2X purinoceptor 5): > 10 µM; IC50 (P2X purinoceptor 1): > 10 µM; IC50 (P2X purinoceptor 7): > 10 µM; IC50 (Cytochrome P450 2D6): < 10 µM
CC(CN1CCN(c2ncccn2)CC1)NC(=O)c1cccc(-c2ccc(F)cc2)c1 (stereo unspecified)	0.126	> 10	–
CCCc1nc(-c2ccc(F)cc2)oc1C(=O)NC(C)(C)CN1CCN(c2ncccn2)CC1	> 10	–	–
CC(CN1CCN(c2ncccn2)CC1)NC(=O)c1nc(-c2ccccc2)cc(-c2ccccc2)n1 (stereo unspecified)	5.01	> 10	–
CC(CN1CCN(c2ncccn2)CC1)NC(=O)c1cc(-c2ccccc2)oc1-c1ccccc1 (stereo unspecified)	2	> 10	–
CCn1nc(-c2ccccc2)c2cc(C(=O)NC(C)CN3CCN(c4ncccn4)CC3)sc21 (stereo unspecified)	0.501	–	–
CC(CN1CCN(c2ncccn2)CC1)NC(=O)c1cc(-c2ccccc2)nc(-c2ccccc2)c1 (stereo unspecified)	1.26	> 10	–
CCCc1nc(-c2ccc(F)cc2)oc1C(=O)N[C@H](C)CN1CCN(C(=O)NC)CC1	> 10	> 10	–
CCCc1cc(C(=O)NC(C)CN2CCN(c3ncccn3)CC2)cc(-c2ccc(F)cc2)c1 (stereo unspecified)	0.501	> 10	–
CCCc1nc(-c2ccc(F)cc2)oc1C(=O)NC(C)CN1CCN(c2nccs2)CC1 (racemic)	0.631	> 10	–
CCCc1nc(-c2ccc(F)cc2)oc1C(=O)N[C@@H](C)CN1CCN(c2ncccn2)CC1	2	> 10	–
Cc1nn(-c2ccccc2)c2sc(C(=O)NC(C)CN3CCN(c4ncccn4)CC3)cc12 (stereo unspecified)	10	–	–
CC(=O)N1CCN(CC(C)NC(=O)c2cc3c(-c4ccccc4)nn(C)c3s2)CC1 (stereo unspecified)	0.1	–	–
CC(CN1CCN(c2ncccn2)CC1)NC(=O)c1cn(-c2ccccc2)nc1-c1ccccc1 (stereo unspecified)	1	> 10	–
CCCc1nc(-c2ccc(F)cc2)oc1C(=O)NCCN1CCN(c2ncccn2)CC1	> 10	–	–
CCCc1nc(-c2ccc(F)cc2)oc1C(=O)N[C@H](C)CN1CCN(c2ccccn2)CC1	1.58	> 10	–
CCCc1nc(-c2ccc(F)cc2)oc1C(=O)N[C@H](C)CN1CCN(S(C)(=O)=O)CC1	> 10	> 10	–

Compound	IC50 (P2X purinoceptor 3) [µM]	IC50 [1] [µM]	further results
CC(CN1CCN(c2ncccn2)CC1)NC(=O)c1oc(-c2ccccc2)nc1-c1ccccc1 (stereo unspecified)	1.26	> 10	–
CC(CN1CCN(c2ncccn2)CC1)NC(=O)c1nc(-c2ccccc2)oc1-c1ccccc1 (stereo unspecified)	3.98	> 10	–
CCCc1nc(-c2ccc(F)cc2)oc1C(=O)NC(C)CN1CCN(c2ccccn2)CC1 (racemic)	> 10	> 10	–
CC(CN1CCN(c2ncccn2)CC1)N1Cc2c(c(-c3ccccc3)nn2-c2ccc(F)cc2)C1=O (stereo unspecified)	> 10	–	–
CC(CN1CCN(c2ncccn2)CC1)NC(=O)c1cc(-c2ccc(F)cc2)cc(-c2ccc(F)cc2)c1 (stereo unspecified)	0.398	> 10	–
CCCc1nc(-c2ccc(F)cc2)oc1C(=O)N[C@H](C)CN1CCN(C(C)=O)CC1	0.398	> 10	–
CCCc1nc(-c2ccc(F)cc2)oc1C(=O)N[C@H](C)CN1CCN(c2cnccn2)CC1	0.501	> 10	–
CC(CN1CCN(c2ncccn2)CC1)NC(=O)c1sc(-c2ccccc2)nc1-c1ccccc1 (stereo unspecified)	> 10	> 10	–
CCCc1nc(-c2ccc(F)cc2)oc1COC(C)CN1CCN(c2ncccn2)CC1 (stereo unspecified)	> 10	–	–
CCCc1nc(-c2ccc(F)cc2)oc1C(=O)N[C@H](C)CN1CCN(c2ccncc2)CC1	> 10	> 10	–
CCCc1nc(-c2ccc(F)cc2)oc1C(=O)N[C@H](C)CN1CCN(C(=O)c2ccco2)CC1	2.51	> 10	–
Cc1c(C(=O)NC(C)CN2CCN(c3ncccn3)CC2)c(-c2ccccc2)nn1-c1ccccc1 (stereo unspecified)	> 10	> 10	–
CCCc1nc(-c2ccc(F)cc2)oc1C(=O)N[C@H](C)CN1CCN(C(=O)OCC)CC1	> 10	> 10	–
CCCc1nc(-c2ccc(F)cc2)oc1C(=O)NC(C)CN1CCN(C(C)=S)CC1 (racemic)	0.1	> 10	–
CC(CN1CCN(c2ncccn2)CC1)NC(=O)c1cc2c(-c3ccccc3)nn(C)c2s1 (stereo unspecified)	0.2	> 10	–
Cc1nc(-c2ccccc2)oc1C(=O)NC(C)CN1CCN(c2ncccn2)CC1 (stereo unspecified)	5.01	> 10	–
CCCc1nc(-c2ccc(F)cc2)oc1C(=O)N(C)CCN1CCN(c2ncccn2)CC1	> 10	–	–
CCCc1nc(-c2ccc(F)cc2)oc1C(=O)N[C@H](C)CN1CCN(c2ncccn2)CC1	0.0501	> 10	–
CC(CN1CCN(c2ncccn2)CC1)NC(=O)c1cc2c(-c3ccccc3)nn(C)c2o1 (stereo unspecified)	> 10	–	–
CC(CN1CCN(c2ncccn2)CC1)NC(=O)c1cc(-c2ccccc2)n(-c2ccccc2)n1 (stereo unspecified)	1.26	> 10	–
CCCc1nc(-c2ccc(F)cc2)oc1C(=O)NC(C)CN1CCCN(c2ncccn2)CC1 (stereo unspecified)	2.51	–	–
Cc1ccccc1-c1nn(C)c2sc(C(=O)NC(C)CN3CCN(c4ncccn4)CC3)cc12 (stereo unspecified)	2	–	–
CC(=O)N1CCN(CC(C)NC(=O)c2cc3c(-c4ccc(C)cc4)nn(C)c3s2)CC1 (stereo unspecified)	0.0398	–	–
CC(CN1CCN(c2ncccn2)CC1)NC(=O)c1cc(-c2ccccc2)nn1-c1ccccc1 (stereo unspecified)	1	> 10	–
CC(CN1CCN(c2ncccn2)CC1)NC(=O)c1cc(Br)cc(-c2ccc(F)cc2)c1 (stereo unspecified)	0.501	> 10	–
CCCc1nc(-c2ccc(F)cc2)oc1C(=O)N[C@H](C)CN1CCN(C(=O)C2CC2)CC1	> 10	> 10	–
